Results published in patent EP0287988A2, “Pyrrole aldehydes, their preparation and use” (CASSELLA Aktiengesellschaft, priority 1987, dated 1988).

Tested on: scopolamininduzierten Amnesie
Test: Passive avoidance test, scopolamine-induced amnesia (light-dark box, foot shock, latency after 24 h)
Type: in vivo, Mäuse
Settings: male mice, scopolamine hydrobromide 3 mg/kg i.p.
Procedure: Die Testapparatur ist eine Hell-Dunkel-Box mit elektrifizierbarem Gitterboden im dunklen Teil.
55 Minuten nach Verabreichung von Kontroll-und Präparatinjektion werden unerfahrene männliche Mäuse mit Scopolaminhydrobromid (3 mg/kg i.p.) behendelt. 5 Minuten später werden die Mäuse in den hellen Teil der Box gesetzt. Nach dem Überwechseln in den drunklen Teil der Box erhalten sie einen ihnen unangenehmen elektrischen Fußschock. Nach 24 Stunden wird jede Maus einmal in den hellen Teil der Testapparatur gesetzt und die Verweildauer (max. 180 sec.) gemessen. […] […] Die Ergebnisse sind in Tabelle 2 angegeben.

Compound: 1-(Aminocarbony(methyl)-2,5-dimethylpyrrol-3-aldehyd [Beispiel 13]
- Prozentuale Abschwächung der scopolamininduzierten Amnesie (Dosis 30 mg/kg p.o., latency measured after 24 h (max. 180 sec)): 146%

Compound: NC(=O)CN1CCCC1=O [Piracetam]
- prozentuale Abschwächung (Dosis 60 mg/kg p.o.): 100%
